The record followed here is patent publication US12403137B2, “Compounds and methods of use” (Tango Therapeutics, Inc., priority 2019, dated 2025).

The structures appear in SMILES notation. pIC50: −log10 of the molar value. Bounds are passed on as bounds.

Assay [1] concerns the target T1, PRMT5 (Homo sapiens, UniProt O14744).
T1 construct: purchased Viva (custom protein)
As to the kind of experiment: PRMT5 inhibition assay with no cofactor. The assay is classed as biochemical. The note with it: against PRMT5 with no cofactor; read-out: No Co-factor IC50.

The target in assay [2] is T1, PRMT5. Description: PRMT5 inhibition assay with MTA as cofactor. The assay is classed as biochemical. As to conditions: for pIC50: against PRMT5 with MTA as cofactor; for SAM/MTA Ratio: ratio of Ki in the presence of SAM to Ki in the presence of MTA, Ki=IC50/1.5 (SAM), Ki=IC50/13.5 (MTA). From the text: (§1) The Ki values can be calculated from the IC50 values as described in the Examples section. As detailed in the Examples section, for the assay performed in the presence of SAM, IC50=Ki×1.5 (Ki=IC50/1.5). For the assay performed in the presence of MTA, IC50=Ki×13.5 (Ki=IC50/13.5). Column 6 indicates the ratio between the Ki of compounds in the presence of SAM and the Ki of compounds in the presence of MTA

Assay [3] deals with T1, PRMT5. As to the kind of experiment: PRMT5 inhibition assay with SAM as cofactor. The class given is biochemical. The note with it: against PRMT5 in the presence of SAM as cofactor.
Source text: as §1

The subject of assay [4] is HAP1 MTAP-intact cell line. Description: SDMA in-cell western assay, HAP1 MTAP-intact. As to conditions: for pIC50: Homo sapiens. The assay is classed as cell-based. The protocol:
(§2) Table 1 also indicates IC50 values in an MTAP-isogenic cell line pair for exemplary compounds in an SDMA in-cell western assay (columns 7-8). HAP1 MTAP-intact is a cell line in which endogenous levels of MTAP are expressed, and HAP1 MTAP-deleted is an MTAP-null cell line. For Table 1, “a*” and “aa*” indicates an IC50 of <1 μM, “b*” and “bb*” indicates an IC50 equal to or greater than 1 μM but less than 10 μM, and “c*” and “cc*” indicates an IC50 of greater than or equal to 10 μM in the HAP1 MTAP-intact and the HAP1 MTAP-deleted assays, respectively. In column 9, “A*” indicates an IC50 ratio greater than or equal to 10 fold between the IC50 in the HAP1 MTAP-intact cell line and the HAP1 MTAP-deleted cell line; “B*” indicates an IC50 ratio greater than or equal to 3 fold but lower than 10 fold between the IC50 in the HAP1 MTAP-intact cell line and the HAP1 MTAP-deleted cell line; “C*” indicates an IC50 ratio of less than 3 fold between the IC50 in the HAP1 MTAP-intact cell line and the HAP1 MTAP-deleted cell line. Compounds with a ratio in the SDMA in-cell western assay of equal to or greater than 3 fold are considered MTAP-selective.

For assay [5], the system named is HAP1 MTAP-deleted cell line. Description: SDMA in-cell western assay, HAP1 MTAP-deleted. The assay is classed as cell-based. The note with it: for pIC50: Homo sapiens, HAP1 MTAP-deleted (MTAP-null) cell line; for MTAP Intact/Deleted Ratio: IC50 ratio HAP1 MTAP-intact / HAP1 MTAP-deleted, >=3 fold considered MTAP-selective. The protocol:
as §2

T1 sequence (O14744 whole entry): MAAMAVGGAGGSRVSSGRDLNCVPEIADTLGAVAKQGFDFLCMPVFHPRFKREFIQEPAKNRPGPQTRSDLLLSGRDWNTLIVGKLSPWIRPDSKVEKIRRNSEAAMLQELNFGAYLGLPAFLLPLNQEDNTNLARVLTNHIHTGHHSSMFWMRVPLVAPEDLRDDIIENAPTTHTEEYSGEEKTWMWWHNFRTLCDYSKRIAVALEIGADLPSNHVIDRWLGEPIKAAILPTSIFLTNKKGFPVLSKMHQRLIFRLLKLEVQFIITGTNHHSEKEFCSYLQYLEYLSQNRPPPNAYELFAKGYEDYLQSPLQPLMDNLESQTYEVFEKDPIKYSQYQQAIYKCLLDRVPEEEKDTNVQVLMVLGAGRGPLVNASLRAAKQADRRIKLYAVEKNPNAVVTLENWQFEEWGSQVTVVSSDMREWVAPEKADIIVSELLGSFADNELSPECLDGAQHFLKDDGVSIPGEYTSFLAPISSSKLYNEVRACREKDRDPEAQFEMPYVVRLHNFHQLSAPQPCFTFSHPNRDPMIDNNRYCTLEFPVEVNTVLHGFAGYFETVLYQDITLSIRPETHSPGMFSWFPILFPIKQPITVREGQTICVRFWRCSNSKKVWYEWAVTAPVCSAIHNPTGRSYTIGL
T1 sequence (Q9BQA1 whole entry partner): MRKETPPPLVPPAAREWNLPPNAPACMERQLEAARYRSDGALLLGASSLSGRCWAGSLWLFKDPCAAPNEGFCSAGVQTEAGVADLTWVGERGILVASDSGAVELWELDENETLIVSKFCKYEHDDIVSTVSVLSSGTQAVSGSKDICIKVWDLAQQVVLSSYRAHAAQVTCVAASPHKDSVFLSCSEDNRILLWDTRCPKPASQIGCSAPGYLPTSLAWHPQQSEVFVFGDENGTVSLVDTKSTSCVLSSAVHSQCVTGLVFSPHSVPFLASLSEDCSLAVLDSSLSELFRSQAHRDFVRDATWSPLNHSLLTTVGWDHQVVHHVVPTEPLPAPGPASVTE

For `O=C(NC[C@@H](O)[C@@H]1Cc2ccc(OCc3cnco3)cc2CN1)c1ccc(C(=O)N2CCOCC2)cc1` [Compound 1, N—((R)-2-hydroxy-2-((S)-7-(oxazol-5-ylmethoxy)-1,2,3,4-tetrahydroisoquinolin-3-yl)ethyl)-4-(morpholine-4-carbonyl)benzamide], the negative-log IC50 (pIC50) – broadly, the negative decadic logarithm of the IC50, by convention in mol/L – on PRMT5 [1] is not above 5.30; at PRMT5 [2], 6.30 to 7.30; on PRMT5 [3] it was 6.30 to 7.30; in assay [4] it was not above 5.00; in assay [5], not above 5.00. In addition, on PRMT5 [2], the “SAM/MTA Ratio” value was “A (a Ki ratio greater than or equal to 10 fold between the Ki in the presence of SAM and the Ki in the presence of MTA)”. The “MTAP Intact/Deleted Ratio” value in assay [5] is “C* (an IC50 ratio of less than 3 fold between the IC50 in the HAP1 MTAP-intact cell line and the HAP1 MTAP-deleted cell line)”.

As to `CCOc1nc(N2CCN(C(=O)OC)CC2)ccc1C(=O)NC[C@@H](O)[C@@H]1Cc2ccc(OCc3ocnc3C)cc2CN1` [Compound 17, methyl 4-(6-ethoxy-5-(((R)-2-hydroxy-2-((S)-7-((4-methyloxazol-5-yl)methoxy)-1,2,3,4-tetrahydroisoquinolin-3-yl)ethyl)carbamoyl)pyridin-2-yl)piperazine-1-carboxylate], the negative-log IC50 (pIC50) at PRMT5 [1] is 6.30 to 7.30; on PRMT5 [2], more than 7.30; at PRMT5 [3], 6.30 to 7.30; in assay [4], 5.00 to 6.00; in assay [5], more than 6.00. The “SAM/MTA Ratio” value at PRMT5 [2] is “A (a Ki ratio greater than or equal to 10 fold between the Ki in the presence of SAM and the Ki in the presence of MTA)”. Moreover, the “MTAP Intact/Deleted Ratio” value in assay [5] was “A* (an IC50 ratio greater than or equal to 10 fold between the IC50 in the HAP1 MTAP-intact cell line and the HAP1 MTAP-deleted cell line)”.

As to `Cc1ncoc1COc1ccc2c(c1)CN[C@H]([C@H](O)CNC(=O)c1cc(NC3CC4(CCC4)C3)nc(N3CCN(C(=O)C4CC4)CC3)c1)C2` [Compound 42, 2-[4-(cyclopropanecarbonyl)piperazin-1-yl]-N-[(2R)-2-hydroxy-2-[(3S)-7-[(4-methyloxazol-5-yl)methoxy]-1,2,3,4-tetrahydroisoquinolin-3-yl]ethyl]-6-(spiro[3.3]heptan-2-ylamino)pyridine-4-carboxamide], the pIC50 is 6.30 to 7.30 at PRMT5 [1]; 6.30 to 7.30 on PRMT5 [2]; 6.30 to 7.30 at PRMT5 [3]; more than 6.00 in assay [4]; more than 6.00 in assay [5]. Moreover, at PRMT5 [2], the “SAM/MTA Ratio” value was “A (a Ki ratio greater than or equal to 10 fold between the Ki in the presence of SAM and the Ki in the presence of MTA)”. Moreover, the “MTAP Intact/Deleted Ratio” value in assay [5] is “A* (an IC50 ratio greater than or equal to 10 fold between the IC50 in the HAP1 MTAP-intact cell line and the HAP1 MTAP-deleted cell line)”.

Consider `Cc1ncoc1COc1ccc2c(c1)CN[C@H]([C@H](O)CNC(=O)c1ccc(C(=O)N3[C@@H]4CCC[C@H]3COC4)cc1)C2` [Compound 8, 4-((1R,5S)-3-oxa-9-azabicyclo[3.3.1]nonane-9-carbonyl)-N—((R)-2-hydroxy-2-((S)-7-((4-methyloxazol-5-yl)methoxy)-1,2,3,4-tetrahydroisoquinolin-3-yl)ethyl)benzamide], for which the pIC50 at PRMT5 [1] was 6.30 to 7.30; against PRMT5 [2] it was 6.30 to 7.30; on PRMT5 [3], 6.30 to 7.30; in assay [4], 5.00 to 6.00; in assay [5] it was more than 6.00. On PRMT5 [2], the “SAM/MTA Ratio” value was “A (a Ki ratio greater than or equal to 10 fold between the Ki in the presence of SAM and the Ki in the presence of MTA)”. Besides, in assay [5], the “MTAP Intact/Deleted Ratio” value was “A* (an IC50 ratio greater than or equal to 10 fold between the IC50 in the HAP1 MTAP-intact cell line and the HAP1 MTAP-deleted cell line)”.

For the compound `CC(=O)N1CCC(Nc2cc(C(=O)NC[C@@H](O)[C@@H]3Cc4ccc(OCc5ocnc5C)cc4CN3)nc(N3CCN(C(C)C)CC3)n2)CC1` [Compound 72], the results for the negative-log IC50 (pIC50) (at PRMT5 [1]; at PRMT5 [2]; in assay [5]) were 6.30 to 7.30, more than 7.30 and more than 6.00, respectively. In addition, the “HAP1 MTAP Intact IC50” value in assay [4] is listed as “B*”. Moreover, the “MTAP Intact/Deleted Ratio” value in assay [5] is “A* (an IC50 ratio greater than or equal to 10 fold between the IC50 in the HAP1 MTAP-intact cell line and the HAP1 MTAP-deleted cell line)”.

Regarding `CCCN(C)c1nc(NC2COC2)cc(C(=O)NC[C@@H](O)[C@@H]2Cc3ccc(OCc4ocnc4C)cc3CN2)n1` [Compound 38, N—((R)-2-hydroxy-2-((S)-7-((4-methyloxazol-5-yl)methoxy)-1,2,3,4-tetrahydroisoquinolin-3-yl)ethyl)-2-(methyl(propyl)amino)-6-(oxetan-3-ylamino)pyrimidine-4-carboxamide], the values for the negative logarithm of the IC50 (pIC50) at PRMT5 [1], on PRMT5 [2] and at PRMT5 [3] were not above 5.30, 5.30 to 6.30 and 5.30 to 6.30, respectively. For the same compound, on PRMT5 [2], the “SAM/MTA Ratio” value was “A (a Ki ratio greater than or equal to 10 fold between the Ki in the presence of SAM and the Ki in the presence of MTA)”.

Turning to `Cc1ncoc1COc1ccc2c(c1)CN[C@H]([C@H](O)CNC(=O)c1cc(NC3CC4(CCC4)C3)nc(N3CCN(C(C)C)CC3)c1)C2` [Compound 70], the pIC50 at PRMT5 [1] was more than 7.30; at PRMT5 [2] it was more than 7.30; in assay [4] it was more than 6.00; in assay [5], more than 6.00. Further, the “MTAP Intact/Deleted Ratio” value in assay [5] is “B* (an IC50 ratio greater than or equal to 3 fold but lower than 10 fold between the IC50 in the HAP1 MTAP-intact cell line and the HAP1 MTAP-deleted cell line)”.

In the case of `Cc1ncoc1COc1ccc2c(c1)CN[C@H]([C@H](O)CNC(=O)c1cc(NC3CCC3)nc(C3CCN(C(C)C)CC3)c1)C2` [Compound 78], the pIC50 at PRMT5 [1] was 6.30 to 7.30; against PRMT5 [2], more than 7.30; in assay [4] it was 5.00 to 6.00; in assay [5], more than 6.00. For the same compound, the “MTAP Intact/Deleted Ratio” value in assay [5] was “A* (an IC50 ratio greater than or equal to 10 fold between the IC50 in the HAP1 MTAP-intact cell line and the HAP1 MTAP-deleted cell line)”.

On to `COCCN(C)c1cc(C(=O)NC[C@@H](O)[C@@H]2Cc3ccc(OCc4ocnc4C)cc3CN2)cc(NC2CC3(CCC3)C2)n1` [Compound 68], for which the pIC50 on PRMT5 [1] was 6.30 to 7.30; against PRMT5 [2], more than 7.30; in assay [4], 5.00 to 6.00; in assay [5] it was more than 6.00. In addition, the “MTAP Intact/Deleted Ratio” value in assay [5] was “A* (an IC50 ratio greater than or equal to 10 fold between the IC50 in the HAP1 MTAP-intact cell line and the HAP1 MTAP-deleted cell line)”.

In the case of `COCCN(C)c1cc(C(=O)NC[C@@H](O)[C@@H]2Cc3ccc(OCc4ocnc4C)cc3CN2)cc(NC2CN(C(C)=O)C2)n1` [Compound 69], the pIC50 was 6.30 to 7.30 on PRMT5 [1], more than 7.30 at PRMT5 [2], not above 5.00 in assay [4] and 5.00 to 6.00 in assay [5]. The “MTAP Intact/Deleted Ratio” value in assay [5] was “C* (an IC50 ratio of less than 3 fold between the IC50 in the HAP1 MTAP-intact cell line and the HAP1 MTAP-deleted cell line)”.

Turning to `CC(=O)N1CCC(Nc2cc(C(=O)NC[C@@H](O)[C@@H]3Cc4ccc(OCc5ocnc5C)cc4CN3)nc(N3CCCC3)n2)CC1` [Compound 81], the negative-log IC50 (pIC50) at PRMT5 [1] was 6.30 to 7.30; on PRMT5 [2], more than 7.30; in assay [4], 5.00 to 6.00; in assay [5], more than 6.00. Also, the “MTAP Intact/Deleted Ratio” value in assay [5] was “A* (an IC50 ratio greater than or equal to 10 fold between the IC50 in the HAP1 MTAP-intact cell line and the HAP1 MTAP-deleted cell line)”.

Turning to `COCCN(C)c1nc(NC2CN(C(C)=O)C2)cc(C(=O)NC[C@@H](O)[C@@H]2Cc3ccc(OCc4ocnc4C)cc3CN2)n1` [Compound 82], the pIC50 at PRMT5 [1] was 6.30 to 7.30; on PRMT5 [2], more than 7.30; in assay [4], not above 5.00; in assay [5], more than 6.00. Besides, the “MTAP Intact/Deleted Ratio” value in assay [5] was “A* (an IC50 ratio greater than or equal to 10 fold between the IC50 in the HAP1 MTAP-intact cell line and the HAP1 MTAP-deleted cell line)”.

For the compound `COCCN(C)c1nc(NC2COC2)cc(C(=O)NC[C@@H](O)[C@@H]2Cc3ccc(OCc4ocnc4C)cc3CN2)n1` [Compound 37, N—((R)-2-hydroxy-2-((S)-7-((4-methyloxazol-5-yl)methoxy)-1,2,3,4-tetrahydroisoquinolin-3-yl)ethyl)-2-((2-methoxyethyl)(methyl)amino)-6-(oxetan-3-ylamino)pyrimidine-4-carboxamide], the pIC50 at PRMT5 [1] was not above 5.30; against PRMT5 [2], 5.30 to 6.30; at PRMT5 [3], 5.30 to 6.30. Moreover, at PRMT5 [2], the “SAM/MTA Ratio” value is “A (a Ki ratio greater than or equal to 10 fold between the Ki in the presence of SAM and the Ki in the presence of MTA)”.
